From US20250115598A1 (Anaxis Pharma Pty Ltd, priority 2021, published 2025)
Read-outs that look alike come from different tables or passages of the source.

How the values were obtained:
human RIPK1 = human RIPK1 (Homo sapiens (Human), UniProt Q13546); assay: KINOMEscan binding assay, human RIPK1; settings: Table 21
How it was run: (§1)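 Competition binding format with qPCR detection. Kinases, either phage-fused from E. coli lysates or HEK-293-derived with a DNA tag, bound ligand-coated beads in the presence of compound (11 points, 3-fold steps, 1% DMSO, top usually 30,000 nM). Kd from nonlinear Hill fitting with slope −1.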

human RIPK3 = human RIPK3 (Homo sapiens (Human), UniProt Q9Y572); assay: KINOMEscan binding assay, human RIPK3; settings: Table 21
How it was run: as §1

U937 cells = assay: Counter screen: cell viability without the TSQ cocktail (off-target effect); design: species or system human; settings: Homo sapiens
Experimental: (§2) • Cell Line ID: U937 human histiocytic leukemia cell line. • Cell Concentration (cells/well): Final cell density is 20000 cells per well. • Cell growth medium: HT-RPMI medium+7.4% Fetal Bovine Serum (FBS). Cells are cultured in Corning 150 cm^2 tissue culture flasks with vented caps at 37° C./5% CO2. • Incubation: Plates were incubated at 37° C./5% CO2 in a humidified incubator for 48 hours following addition of compounds and death stimuli (TSQ cocktail). • Compound concentration: 36 μM starting concentration, 1:3 dilution, 10 point • DMSO final concentration (% v/v): 0.3%. Compounds in TSQ Cocktail (T: TNF; S: Smac Mimetic; Q: Q-VD-OPh) and their Final Concentrations: • hTNF-Fc (100 ng/ml)—produced by standard procedures as shown in Bossen et al., J. Biol. Chem., 2006, 281(20), 13964-13971. • Compound A (500 nM)—Smac mimetic, Tetralogic and SYNthesis med chem • Q-VD-OPh (10 μM)—MP Biomedicals
(§3) The cellular assay was carried out according to the following steps: • 1. Each well was prepared by sequential addition of: • a. DMSO (control; columns 1-2 and 23-24) or compound in DMSO—addition was performed using acoustic transfer of nL volumes of stock compound to give final test concentrations of 36, 12, 4, 1.3, 0.44, 0.148, 0.049, 0.016, 0.005 and 0.002 μM. All wells were backfilled with DMSO to a final total volume in the well of 100 nL. • b. Following compound/DMSO addition in step (a), 40 μL of cell suspension (5×10^5 cells/mL) was added to provide a final cell concentration of 20,000 cells per well, and • c. Following cell addition in step (b), 10 μL of 5×TSQ cocktail (except to positive controls; columns 1 and 23) was added to each well. • 2. After 48 hours, plate was removed from the 37° C. incubator and equilibrated to room temperature for 45 minutes. • 3.15 μL of room temperature CellTitre-Glo2™ (Promega™) was added to each well. • 4. Shook plates for 2 minutes (˜600 rpm) and incubated at room temperature for 15 minutes to allow signal to stabilise. • 5. Read luminescence readout on a plate reader.
(§4) • Assay involving the TSQ cocktail (T: TNF; S: Smac mimetic; Q: Q-VD-OPh): TSQ treatment ensures that cells specifically undergo necroptotic cell death. TNF activates the TNF receptor, Smac mimetic directs the signal away from proinflammatory signaling and toward the RIPK1/RIPK3-mediated cell death pathways, and Q-VD-OPh ensures that the apoptotic response is blocked leaving only the programmed necrosis response. The compounds' activity (solution in DMSO) tested in this TSQ-induced assay was evaluated by determining the number of viable cells in culture by measuring the amount of ATP present as measured by CelltiterGlo. • Counter screen: In parallel, all compounds were tested for their ability to affect cell viability. The same U937 cells were treated with compound in DMSO without the TSQ cocktail. This counter screen enabled evaluation of off-target effects. In this case, cell viability was measured by CelltiterGlo.

[1] = system: Immortalised Mouse Dermal Fibroblasts (MDFs); assay: Cellular assay: inhibition of TSI induced necroptosis, CellTitre-Glo viability; settings: Mus musculus, Fibroblast; MDF, 3 hours TSI cocktail, Table 24; read-out: Inhibition of TSI-induced necroptosis (IC50 cell-based assay) in MDF
How it was run: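 Immortalised mouse dermal fibroblasts (2200 cells/well) pretreated 30 min with compound, 10-point 1:3 series from 36 μM, 0.3% DMSO. Then 3 h at 37° C. with TNF (100 ng/ml), Smac mimetic (500 nM) and IDN-6556 (10 μM). CellTiter-Glo luminescence normalised to DMSO (100%) and DMSO+TSI (0%); IC50 from 4-parameter logistic fit.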

human MLKL (full length) = human MLKL (full length) (Homo sapiens (Human), UniProt Q8NB16); assay: KINOMEscan binding assay, human MLKL (full length); settings: hMLKL, Table 25; read-out: MLKL (KD)
How it was run: as §1

[2] = system: U937 human histiocytic leukemia cell line; assay: Cellular assay: inhibition of TSQ induced necroptosis, CellTitre-Glo viability; settings: Homo sapiens, U-937; U937 cells, 48 hours, TSQ cocktail, Table 26; read-out: Inhibition of TSQ-induced necroptosis (IC50 cell-based assay)
Experimental: Cellular Assay: Screening Compounds for Inhibition of TSQ Induced Necroptosis, 384 Well Plate Format.
as §2, §3
Percent viability was calculated for each compound according to equation (2):
as §4

[3] = U-937, Table 26, read-out: Off-target effect (IC50 cell-based assay)

human MLKL (full length), sequence (Q8NB16 whole entry): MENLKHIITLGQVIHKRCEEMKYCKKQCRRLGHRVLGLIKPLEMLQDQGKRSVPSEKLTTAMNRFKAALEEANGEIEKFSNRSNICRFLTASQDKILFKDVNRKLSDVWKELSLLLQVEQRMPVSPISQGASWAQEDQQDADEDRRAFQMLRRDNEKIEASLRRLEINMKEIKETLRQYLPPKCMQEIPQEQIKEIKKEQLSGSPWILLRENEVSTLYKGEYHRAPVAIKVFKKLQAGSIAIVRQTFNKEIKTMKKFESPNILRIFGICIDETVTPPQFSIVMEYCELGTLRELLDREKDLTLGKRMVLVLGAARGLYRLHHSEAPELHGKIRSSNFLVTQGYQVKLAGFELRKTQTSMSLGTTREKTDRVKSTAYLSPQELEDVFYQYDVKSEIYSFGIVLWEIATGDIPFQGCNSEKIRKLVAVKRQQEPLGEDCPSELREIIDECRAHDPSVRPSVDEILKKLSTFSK
human RIPK3, sequence (Q9Y572 whole entry): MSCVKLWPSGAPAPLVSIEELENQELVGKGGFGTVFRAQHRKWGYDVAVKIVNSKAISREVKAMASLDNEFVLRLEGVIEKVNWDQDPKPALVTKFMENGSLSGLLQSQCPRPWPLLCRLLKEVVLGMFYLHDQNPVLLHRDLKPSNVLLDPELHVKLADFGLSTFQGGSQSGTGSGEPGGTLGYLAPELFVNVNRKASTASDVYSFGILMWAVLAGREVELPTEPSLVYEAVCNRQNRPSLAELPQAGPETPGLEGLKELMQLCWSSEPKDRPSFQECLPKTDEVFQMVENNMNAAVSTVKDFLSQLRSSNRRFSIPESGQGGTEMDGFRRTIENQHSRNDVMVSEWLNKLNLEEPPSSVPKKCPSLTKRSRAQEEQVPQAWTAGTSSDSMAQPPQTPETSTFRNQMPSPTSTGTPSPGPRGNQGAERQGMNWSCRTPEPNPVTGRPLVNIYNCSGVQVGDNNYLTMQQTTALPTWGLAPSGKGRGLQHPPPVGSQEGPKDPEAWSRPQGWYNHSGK
human RIPK1, sequence (Q13546 whole entry, the tested form may be a part): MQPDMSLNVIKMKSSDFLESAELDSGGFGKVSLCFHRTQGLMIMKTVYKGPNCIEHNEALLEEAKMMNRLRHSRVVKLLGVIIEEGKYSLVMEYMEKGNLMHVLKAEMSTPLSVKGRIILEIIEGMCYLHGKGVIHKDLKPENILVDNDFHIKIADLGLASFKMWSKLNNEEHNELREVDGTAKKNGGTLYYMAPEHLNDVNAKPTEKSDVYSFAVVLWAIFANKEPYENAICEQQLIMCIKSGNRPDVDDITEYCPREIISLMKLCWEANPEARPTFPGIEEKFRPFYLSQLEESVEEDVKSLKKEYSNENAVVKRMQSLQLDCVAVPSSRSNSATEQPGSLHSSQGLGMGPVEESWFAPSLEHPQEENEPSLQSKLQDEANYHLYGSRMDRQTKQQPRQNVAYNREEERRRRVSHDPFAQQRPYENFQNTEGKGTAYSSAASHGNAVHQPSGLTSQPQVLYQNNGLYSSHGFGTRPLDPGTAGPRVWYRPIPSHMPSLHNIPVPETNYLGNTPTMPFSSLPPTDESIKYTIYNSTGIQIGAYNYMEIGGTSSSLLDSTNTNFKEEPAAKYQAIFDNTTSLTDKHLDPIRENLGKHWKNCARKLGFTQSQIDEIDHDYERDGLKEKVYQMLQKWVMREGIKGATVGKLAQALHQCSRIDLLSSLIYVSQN

Row | SMILES | Kd (human RIPK1) | Kd (human RIPK3) | Kd (human MLKL (full length)) | IC50 (U937 cells; U-937, Table 23, read-out: Off-target effect (IC50 cell-based assay)) | IC50 [1] | IC50 [2] | IC50 (U937 cells; [3])
1 | C[C@H](Oc1cc(-c2nn(C)c3c(-c4cnn(C5CCN(C)CC5)c4)cnc(N)c23)ccc1NS(=O)(=O)C(F)F)c1ccc(F)cc1 [Compound 46, (S)-N-(4-(4-amino-1-methyl-7-(1-(1-methylpiperidin-4-yl)-1H-pyrazol-4-yl)-1H-pyrazolo[4,3-c]pyridin-3-yl)-2-(1-(4-fluorophenyl)ethoxy)phenyl)-1,1-difluoromethanesulfonamide] | > 10 µM | > 10 µM |  | > 10 µM | < 1 µM |  | 
2 | CCS(=O)(=O)Nc1ccc(-c2n[nH]c3c(-c4cnn(CCC(=O)N[C@H](C(=O)N5C[C@H](O)C[C@H]5C(=O)NCc5ccc(-c6scnc6C)cc5)C(C)(C)C)c4)cnc(N)c23)cc1OCc1ccc(F)cc1 [Compound 1001, (2S,4R)-1-[(2S)-2-{3-[4-(4-amino-3-{4-ethanesulfonamido-3-[(4-fluorophenyl)methoxy]phenyl}-1H-pyrazolo[4,3-c]pyridin-7-yl)-1H-pyrazol-1-yl]propanamido}-3,3-dimethylbutanoyl]-4-hydroxy-N-{[4-(4-methyl-1,3-thiazol-5-yl)phenyl]methyl}pyrrolidine-2-carboxamide] |  |  | < 0.01 µM |  |  | > 10 µM | > 10 µM
3 | CCS(=O)(=O)Nc1ccc(-c2n[nH]c3c(-c4cnn(CCCCC(=O)N[C@H](C(=O)N5C[C@H](O)C[C@H]5C(=O)NCc5ccc(-c6scnc6C)cc5)C(C)(C)C)c4)cnc(N)c23)cc1OCc1ccc(F)cc1 [Compound 1002, (2S,4R)-1-[(2S)-2-{5-[4-(4-amino-3-{4-ethanesulfonamido-3-[(4-fluorophenyl)methoxy]phenyl}-1H-pyrazolo[4,3-c]pyridin-7-yl)-1H-pyrazol-1-yl]pentanamido}-3,3-dimethylbutanoyl]-4-hydroxy-N-{[4-(4-methyl-1,3-thiazol-5-yl)phenyl]methyl}pyrrolidine-2-carboxamide] |  |  | < 0.01 µM |  |  | > 10 µM | > 10 µM
4 | Cc1ncsc1-c1ccc(CNC(=O)[C@@H]2C[C@@H](O)CN2C(=O)[C@@H](NC(=O)COCCN2CCC(n3cc(-c4cnc(N)c5c(-c6ccc(NS(=O)(=O)C(F)F)c(O[C@@H](C)c7ccc(F)cc7)c6)nn(C)c45)cn3)C2)C(C)(C)C)cc1 (stereo partly drawn) [Compound 1013, (2S,4R)-1-[(2S)-2-(2-{2-[3-(4-{4-amino-3-[4-(difluoromethanesulfonamido)-3-[(1S)-1-(4-fluorophenyl)ethoxy]phenyl]-1-methyl-1H-pyrazolo[4,3-c]pyridin-7-yl}-1H-pyrazol-1-yl)pyrrolidin-1-yl]ethoxy}acetamido)-3,3-dimethylbutanoyl]-4-hydroxy-N-{[4-(4-methyl-1,3-thiazol-5-yl)phenyl]methyl}pyrrolidine-2-carboxamide] |  |  | < 0.01 µM |  |  | 1 to 10 µM | > 10 µM
5 | Cc1ncsc1-c1ccc(CNC(=O)[C@@H]2C[C@@H](O)CN2C(=O)[C@@H](NC(=O)COCCOCCn2cc(-c3cnc(N)c4c(-c5ccc(NS(=O)(=O)C(F)F)cc5)nn(C)c34)cn2)C(C)(C)C)cc1 [Compound 1021] |  |  | < 0.01 µM |  |  | 1 to 10 µM | > 10 µM
6 | CCS(=O)(=O)Nc1ccc(-c2nn(C)c3c(-c4cnn(CCOCCOCC(=O)N[C@H](C(=O)N5C[C@H](O)C[C@H]5C(=O)NCc5ccc(-c6scnc6C)cc5)C(C)(C)C)c4)cnc(C)c23)cc1F [Compound 1029, (2S,4R)-1-[(2S)-2-{2-[2-(2-{4-[3-(4-ethanesulfonamido-3-fluorophenyl)-1,4-dimethyl-1H-pyrazolo[4,3-c]pyridin-7-yl]-1H-pyrazol-1-yl}ethoxy)ethoxy]acetamido}-3,3-dimethylbutanoyl]-4-hydroxy-N-{[4-(4-methyl-1,3-thiazol-5-yl)phenyl]methyl}pyrrolidine-2-carboxamide] |  |  |  |  |  | < 1 µM | > 10 µM

Second part, led by results:

Row | Kd (human RIPK1) | Kd (human RIPK3) | Kd (human MLKL (full length)) | SMILES | IC50 (U937 cells; U-937, Table 23, read-out: Off-target effect (IC50 cell-based assay)) | IC50 [1] | IC50 [2] | IC50 (U937 cells; [3])
7 |  |  | < 0.01 µM | CCS(=O)(=O)Nc1ccc(-c2n[nH]c3c(-c4cnn(CCOCC(=O)N[C@H](C(=O)N5C[C@H](O)C[C@H]5C(=O)NCc5ccc(-c6scnc6C)cc5)C(C)(C)C)c4)cnc(N)c23)cc1OCc1ccc(F)cc1 [Compound 1004, (2S,4R)-1-[(2S)-2-(2-{2-[4-(4-amino-3-{4-ethanesulfonamido-3-[(4-fluorophenyl)methoxy]phenyl}-1H-pyrazolo[4,3-c]pyridin-7-yl)-1H-pyrazol-1-yl]ethoxy}acetamido)-3,3-dimethylbutanoyl]-4-hydroxy-N-{[4-(4-methyl-1,3-thiazol-5-yl)phenyl]methyl}pyrrolidine-2-carboxamide] |  |  | > 10 µM | > 10 µM
8 |  |  | 0.01 to 1 µM | Cc1ncsc1-c1ccc(CNC(=O)[C@@H]2C[C@H](O)CN2C(=O)[C@@H](NC(=O)COCCOCCn2cc(-c3cnc(N)c4c(-c5ccc(NS(=O)(=O)C(F)F)c(O[C@@H](C)c6ccc(F)cc6)c5)nn(C)c34)cn2)C(C)(C)C)cc1 [Compound 1007, (2S,4S)-1-[(2S)-2-(2-{2-[2-(4-{4-amino-3-[4-(difluoromethanesulfonamido)-3-[(1S)-1-(4-fluorophenyl)ethoxy]phenyl]-1-methyl-1H-pyrazolo[4,3-c]pyridin-7-yl}-1H-pyrazol-1-yl)ethoxy]ethoxy}acetamido)-3,3-dimethylbutanoyl]-4-hydroxy-N-{[4-(4-methyl-1,3-thiazol-5-yl)phenyl]methyl}pyrrolidine-2-carboxamide] |  |  | < 1 µM | > 10 µM
9 |  |  | 0.01 to 1 µM | CCS(=O)(=O)Nc1ccc(-c2nn(C)c3c(-c4cnn(CCOCCOCC(=O)N[C@H](C(=O)N5C[C@H](O)C[C@H]5C(=O)NCc5ccc(-c6scnc6C)cc5)C(C)(C)C)c4)cnc(N)c23)cc1 [Compound 1019, (2S,4R)-1-[(2S)-2-{2-[2-(2-{4-[4-amino-3-(4-ethanesulfonamidophenyl)-1-methyl-1H-pyrazolo[4,3-c]pyridin-7-yl]-1H-pyrazol-1-yl}ethoxy)ethoxy]acetamido}-3,3-dimethylbutanoyl]-4-hydroxy-N-{[4-(4-methyl-1,3-thiazol-5-yl)phenyl]methyl}pyrrolidine-2-carboxamide] |  |  | 1 to 10 µM | > 10 µM
10 |  |  | 0.01 to 1 µM | CCS(=O)(=O)Nc1ccc(-c2nn(C)c3c(-c4cnn(CCCCCCC(=O)N[C@H](C(=O)N5C[C@H](O)C[C@H]5C(=O)NCc5ccc(-c6scnc6C)cc5)C(C)(C)C)c4)cnc(N)c23)cc1 [Compound 1020, (2S,4R)-1-[(2S)-2-(7-{4-[4-amino-3-(4-ethanesulfonamidophenyl)-1-methyl-1H-pyrazolo[4,3-c]pyridin-7-yl]-1H-pyrazol-1-yl}heptanamido)-3,3-dimethylbutanoyl]-4-hydroxy-N-{[4-(4-methyl-1,3-thiazol-5-yl)phenyl]methyl}pyrrolidine-2-carboxamide] |  |  | < 1 µM | > 10 µM
